# From US20170003277A1 (priority 2015, published 2017)
# Columns and labels:
# [1] = format: in vivo, human
# From the text: The Teva Patient Support Program in Mexico has an extensive database. Given that patients can switch between branded and purported generic GA, all patients are kept within the database and are provided with patient support services.
# The number of relapses reported by patients in Teva's Patient Support Program on a monthly basis during the years 2012 and 2013 i. It is again clear that when Copaxone alone was in use (i.e. throughout 2012) the overall, as well as per-month number of relapses was lower than that reported when Probioglat was present in the market (i.e. throughout 2013).
# These findings have identified significant differences that warrant further investigation, especially in light of the observed clinical effects of Probioglat's introduction. The Teva Patient Support Program in Mexico records numbers of adverse events, including during the years 2012 and 2013 (Table 31; FIG. 46), for which a similar number of patients were tracked (1618 patients in 2012; 1552 in 2013). Probioglat was first introduced in January 2013; subsequently, each time a patient's prescription was filled, it could be with either Probioglat or GA. […] The gene-expression differences observed herein warrant careful investigation, through studies comparing GA to candidate generics in meaningful settings, most comprehensively including clinical trials.
# [2] = Level of Copaxone in THP-1 cell culture medium over time; format: physicochemical; details: THP-1 culture medium, over 24 hours; 50 μg/mL spiked
# [3] = Long-term animal toxicity studies of TV-5010; design: species or system rats and monkeys; details: in vivo
# [4] = system: mouse splenocytes, THP-1 human monocyte cell line, PBMCs from MS patients; details: prior study (ACTRIMS-ECTRIMS 2014, P282); cited from earlier work
# [5] = system: THP-1 human monocyte cell line; assay: Microarray gene expression in THP-1 cells, Polimunol vs Copaxone, 6 hours (Example 9); format: cell-based
# From the text: Based on previous power calculations (using the R package ssize.fdr), to detect differentially-expressed genes with a fold-change between treatments of as low as 1.3 with 80% power the experiment was designed to include six replicates of each condition. The order of sample processing was randomized with respect to treatment in order to avoid creating confounding batch effects.
# RNA was extracted and expression profiled genome-wide using the Affymetrix U133 Plus 2.0 chip. Three batches of Copaxone® and one batch of Polimunol were comparatively tested in six replicates each. RNA processing was performed by Expression Analysis (NC, USA).
# Differentially-expressed probesets were identified across conditions using linear models for microarray data (LIMMA). For comparing Copaxone® (“GA”) and purported generic, comparisons were corrected for mannitol control (i.e., [GA vs mannitol] was compared to [purported generic vs mannitol]). Probesets were filtered by calls of presence on the chip for the relevant samples in the comparison (to be considered present at a given timepoint, a probeset was required to have on average a call of present or marginal across the relevant samples at that timepoint). Probesets were mapped to genes using the U133 Plus 2.0 chip annotation from Affymetrix.
# [6] = system: mouse splenocytes; assay: Microarray gene expression of ex vivo activated splenocytes from GA-immunized mice (Copaxone, Natco, Escadra, Probioglat, Hangzhou, TV-5010); format: cell-based
# From the text: After 3 days, the mice were sacrificed and cells from their spleens (splenocytes) were isolated because such cells are representative of, and commonly utilized as a gold standard to study the immune system.
# Given the robustness of the model established in our first mouse splenocyte study, we sought to expand the scope of the investigation using the exact same study design, but with an expanded set of treatments (FIG. 1). In addition to comparing Copaxone® to a purported foreign generic version, we also sought to compare purported generics from various manufacturers to each other.
# Extraction of total RNA from activated splenocytes was extracted using PerfectPure RNA Cultures CEKK kit 50 (5Prime GmbH, Hamburg, Germany) and following the manufacturer's instructions. RNA quality was assessed using the absorbance ratio at 260/280 nm and gel electrophoresis (Experion, Bio-Rad, Hercules, Calif., USA). Total RNA extracted from samples was hybridized to Illumina Mouse WG-6V2 microarray chips containing more than 45,200 transcripts.
# Samples were randomized on the chips to avoid batch effects. Illumina's BeadStudio software was utilized for image processing, quantification of signal intensity per bead, and background signal correction. Multiple probes were analyzed for a given gene were averaged and batch correction was conducted using Partek. […]
substance,measurement,setting,value
glatiramer acetate [Copaxone®],Numbers of relapses reported,"[1]; 2012, only branded GA marketed, 1618 patients",8
same,Adverse Event Rate (per month),"[1]; human, in vivo",10.4 per month
same,Numbers of adverse events reported,"[1]; human, in vivo",125
same,Copaxone concentration in cell culture medium,[2],44 to 52 µg/mL
same,Toxicity in long-term animal studies,[3],never seen
same,Genes modulated by Copaxone in both mouse splenocyte and THP-1 systems,[4],"1,378"
same,Genes modulated by Copaxone only in THP-1 cells,[4],"2,121"
same,Genes modulated by Copaxone only in splenocytes,[4],"6,691"
same,IL10RA expression relative to mannitol,[5]; adjusted p<2.8e-14,significantly upregulated
same,IL1RN expression relative to mannitol,[5]; adjusted p<2.8e-10,significantly upregulated
same,IL10 expression relative to mannitol,"[5]; probeset called absent, p<0.029",nominally upregulated
same,"IL1B expression, Copaxone compared with Natco purported generic","[6]; first mouse splenocyte study, adjusted p=0.043 by ANOVA",significantly lower IL1B expression
same,IL1B expression relative to medium,[6]; mouse splenocytes,extremely effective in downregulating IL1B
